Reference: patent US12540163B2 (priority 2021, dated 2026)
Several values for one entry are separate records, joined by “and”; a condition that tells them apart may be missing. Identical values can stand only once.

Assays:
[1] = system: non-capacitated human sperm
[2] = system: non-capacitated human sperm; remark: listed apart in the source
[3] = target: hHv1 (Homo sapiens, UniProt Q96D96)
[4] = system: hHv1 in human sperm

hHv1, sequence (Q96D96 whole entry): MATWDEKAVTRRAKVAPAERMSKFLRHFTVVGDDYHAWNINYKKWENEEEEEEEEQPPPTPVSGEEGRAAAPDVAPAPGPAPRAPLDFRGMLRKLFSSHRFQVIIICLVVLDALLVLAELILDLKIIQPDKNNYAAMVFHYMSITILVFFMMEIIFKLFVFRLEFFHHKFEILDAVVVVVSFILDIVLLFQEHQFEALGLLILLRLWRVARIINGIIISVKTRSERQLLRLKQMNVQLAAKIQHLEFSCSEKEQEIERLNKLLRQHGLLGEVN

## bovine serum albumin [BSA]
[1]
  increase of progesterone-induced peak [Ca2+]i: 2.2 fold
[2]
  change of pHi: increased the speed of cytoplasmic alkalization

## O=C(O)CN(CCN(CC(=O)O)CC(=O)O)CC(=O)O [EDTA]
[3]
  hHv1 in HEK293T cells V1/2 after application: −29 ± 3 mV
[4]
  Sperm H+ current V1/2 after application: 4 mV and 4 ± 1 mV
  Sperm H+ current V1/2 shift: 11 mV

## CC(C)[C@H]1c2ccc(F)cc2CC[C@@]1(CCN(C)CCCc1nc2ccccc2[nH]1)OC(=O)C1CC1 [NNC]
[1]
  inhibition of Alb-potentiated [Ca2+]i increase: inhibited
